Patent publication US20040059104A1, “Nucleotide mimics and their prodrugs” (priority 2002, published 2004)
Where two headings read alike, the source gives them in different places. Values belong to the compound of their own block, whether it stands above or below them.

Experiments:
[1] = molecular target: Ribonucleotide Reductase (RNR R1/R2) (Escherichia coli, UniProt P00452); experiment: Ribonucleotide Reductase inhibition assay (coupled NADPH oxidation); format: biochemical
Description: The assays employed to measure inhibition of Ribonucleotide Reductase (RNR) activity are described below. The effectiveness of the compounds of the present invention as inhibitors of RNR enzyme was determined using the following assays.
This assay was used to measure the ability of the nucleotide mimics of the present invention to inhibit the enzymatic reaction catalyzed by RNR enzyme. In the reduction of cytidine 5′-diphosphate (CDP) to 2′-deoxycytidine 5′-diphosphate (dCDP), stoichiometric amounts of oxidized thioredoxin are formed. This protein is reduced by NADPH in a reaction catalyzed by thioredoxin reductase. By coupling the two reactions, RNR activity was measured by spectrophotometric determination of NADPH oxidation at 340 nm using a UV/VIS spectrophotometer. […]
The standard RNR assay is performed in a 96-well plate (Corning). […] The oxidation of NADPH was monitored at 340 nm on a microplate spectrophotometer (Molecular Devices Corp, Sunnyvale, Calif.). […]
The percentage of inhibition was calculated according to the following equation: […]
Each inhibitor was titrated over an appropriate range of concentrations, and IC50 values were determined using the equation: […]

[2] = Mammalian cell growth inhibition assay (MTT cytotoxicity); format: cell-based, Human; settings: human; CCRF-CEM cells, 72 hr, MTT; read-out: Cytotoxicity IC50 (antiproliferative effect)
Description: (§1) The assays employed for determining the cytotoxicity of the nucleotide mimics of the present invention to mammalian cells are described below.
(§2) Human CCRF-CEM cells were obtained from American Tissue Culture Collection (ATCC) and grown according to ATCC specifications. […] CEM cells were grown at 37° C. in a 95% humidified environment and 5% CO2 atmosphere.
(§3) MTT is water soluble tetrazolin salt that is converted to an insoluble purple formazan by active mitochondrial dehydrogenases of living cells. […] Conversion of MTT into the insoluble formazan by non-treated control or treated cells was monitored at 540 nm.
(§4) CCRF-CEM cells (3×10^4) were plated in 96-well plates in RPMI media. The next day, cells were incubated with different concentrations (0-200 μM) of the nucleotide mimics of the present invention for 72 hr. Following treatment, MTT (2 mg/ml in PBS) dye was added to each well so that the final concentration was 0.5 mg/ml and then incubated for 4 hr at 37° C. Media and MTT dye were removed without disturbing the cells and 100% DMSO was added to dissolve the precipitate. After a 10 minute incubation at room temperature, the optical density values were measured at 540 nm, using the Spectra Max Plus plate reader. Survival was expressed as the percentage of viable cells in treated samples relative to non-treated control cells.

Staphylococcus aureus = experiment: Antimicrobial assay, minimal inhibitory concentration; format: cell-based; settings: Staphylococcus aureus, read-out: S. aureus MIC
Procedure, shortened: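 E. coli and S. aureus grown overnight at 37° C were first screened by disc diffusion on Nutrient Broth agar lawns. MIC was then read after overnight incubation at 37° C as the lowest compound concentration giving no increase in absorbance at 600 nm.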

in vitro = settings: bovine, serum, Half-Life, Serum Half-Lives of Gemcitibine Diphosphate Mimics and Their Prodrugs
CCRF-CEM cells = experiment: Mammalian cell growth inhibition assay (MTT cytotoxicity); format: cell-based, Human
Description: as §1, §2, §3, §4

Chain of Ribonucleotide Reductase (RNR R1/R2) (P69924 2-376): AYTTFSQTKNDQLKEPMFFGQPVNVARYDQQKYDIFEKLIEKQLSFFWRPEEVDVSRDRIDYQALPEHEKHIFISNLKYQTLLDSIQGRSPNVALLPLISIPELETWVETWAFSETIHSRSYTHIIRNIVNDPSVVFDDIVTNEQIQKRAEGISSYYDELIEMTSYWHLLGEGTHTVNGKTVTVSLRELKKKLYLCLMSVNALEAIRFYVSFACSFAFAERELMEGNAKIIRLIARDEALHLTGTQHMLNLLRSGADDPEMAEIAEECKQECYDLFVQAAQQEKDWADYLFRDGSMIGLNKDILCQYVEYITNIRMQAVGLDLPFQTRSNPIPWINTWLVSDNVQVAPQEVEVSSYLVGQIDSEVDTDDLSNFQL
Chain of Ribonucleotide Reductase (RNR R1/R2) (P00452 whole entry): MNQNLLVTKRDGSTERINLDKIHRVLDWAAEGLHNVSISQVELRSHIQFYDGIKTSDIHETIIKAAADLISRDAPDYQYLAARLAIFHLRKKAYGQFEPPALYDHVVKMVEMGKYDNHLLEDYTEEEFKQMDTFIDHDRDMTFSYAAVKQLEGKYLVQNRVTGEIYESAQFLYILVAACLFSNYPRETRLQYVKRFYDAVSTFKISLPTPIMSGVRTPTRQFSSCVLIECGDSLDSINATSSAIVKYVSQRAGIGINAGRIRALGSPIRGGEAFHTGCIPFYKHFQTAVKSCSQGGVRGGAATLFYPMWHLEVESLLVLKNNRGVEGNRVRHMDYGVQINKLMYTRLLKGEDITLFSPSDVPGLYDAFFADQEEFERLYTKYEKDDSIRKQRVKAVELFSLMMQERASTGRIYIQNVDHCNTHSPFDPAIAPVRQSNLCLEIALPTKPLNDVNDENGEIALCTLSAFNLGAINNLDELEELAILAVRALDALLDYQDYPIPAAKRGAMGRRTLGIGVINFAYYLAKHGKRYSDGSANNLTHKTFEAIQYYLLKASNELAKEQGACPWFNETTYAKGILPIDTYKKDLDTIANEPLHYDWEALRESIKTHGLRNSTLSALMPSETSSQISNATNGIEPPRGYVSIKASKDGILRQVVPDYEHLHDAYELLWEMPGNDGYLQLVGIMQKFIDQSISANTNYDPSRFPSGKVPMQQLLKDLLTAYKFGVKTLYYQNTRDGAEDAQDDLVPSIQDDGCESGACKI

SMILES: Nc1ccn([C@@H]2O[C@H](COP(=O)(O)NP(=O)(O)O)[C@@H](O)/C2=C\F)c(=O)n1 [Compound 3, 2′-Deoxy-(E)-2′-fluoromethylenecytidine 5′-imidodiphosphate]
IC50 ([1]; 3-minute inactivation, then assay with 1 mM CDP, read-out: IC50, Inhibition of Ribonucleotide Reductase by Nucleotide Mimics): 8.9 µM

MIC (Staphylococcus aureus; overnight at 37° C., tested 0-200 μg/ml, NA = Not active): > 200 µg/mL
MIC (Staphylococcus aureus; value in brackets beside the μg/ml value): > 475 µM
half-life at 500 μM (in vitro): > 48 h
SMILES: Nc1ccn([C@@H]2O[C@H](COP(=O)(O)CP(=O)(O)O)[C@@H](O)C2(F)F)c(=O)n1 [Compound 5, 2′-Deoxy-2′,2′-difluorocytidine-5′-methylenediphosphonate]
IC50 at 72 h [2]: 4.8 µM

SMILES: Nc1ccn([C@@H]2O[C@H](COP(=O)(O)NP(=O)(O)O)[C@@H](O)C2(F)F)c(=O)n1 [Compound 6, 2′-Deoxy-2′,2′-difluorocytidine 5′-imidodiphosphate]
IC50 [1]: 12.6 µM
half-life at 500 μM (in vitro): 15 h

SMILES: CC(C)(C)C(=O)SCCOP(=O)(CP(=O)(OCCSC(=O)C(C)(C)C)OCC1OC(n2ccc(N)nc2=O)C(F)(F)C1O)OCCSC(=O)C(C)(C)C (stereo not drawn) [Compound 77, 2′-deoxy-2′,2′-difluorocytidine 5′-tri-O—(S-pivaloyl-2-thioethyl)-α,β-methylenediphosphonate]
IC50 (CCRF-CEM cells): 0.1 µM

SMILES: Nc1ccn([C@@H]2O[C@H](CO)[C@@H](O)C2(F)F)c(=O)n1 [Gemcitabine, 2′-deoxy-2′,2′-difluorocytidine, reference compound]
IC50 at 72 h [2]: 0.035 µM
